Values of other authors in patent publication US20030082109A1, “Dextrorotary nicotine for smoking cessation” (priority 2001, published 2003).
Where two headings read alike, the source gives them in different places.

What was measured:
[1] = use as alternative alkaloid in smoking substitute; found and reported
[2] = given amount of d-isomer vs like amount of natural l-isomer, in a person
living organisms = conditions: compared with l-isomer nicotine, found and reported

CN1[C@@H](CC(=O)c2ccccc2)CCC[C@H]1C[C@H](O)c1ccccc1 [lobeline]
adverse side effects [1]: adverse side effects, which are worse than tobacco withdrawal symptoms

CN1CCCC1c1cccnc1 (stereo not drawn) [d-isomer of nicotine, 1 methyl-2-(3-Pyridyl) pyrrolidine]
sensations and satisfaction relative to a like amount of l-isomer nicotine [2]: same sensations and satisfaction | toxicity relative to the natural tobacco-derived l-isomer of nicotine (living organisms): one half as toxic | toxicity relative to the natural tobacco-derived l-isomer of nicotine (living organisms; listed as dextrorotary isomer of nicotine): half as toxic
